Where two headings read alike, the source gives them in different places.
What was measured:
[1] = solvent, cited from earlier work
[2] = document value; cited from earlier work
[3] = Hansen solubility parameters (HSP), δ difference and HSP distance Ra
[4] = cmc by fluorescence probe method, customized photoelectric detector (CD detector); type: physicochemical; conditions: aqueous solution of Supreme Biotechnology (Bright White) laundry detergent; label = solvent for probe
Experimental: Here, the liquid to be tested is Supreme Biotechnology (Brilliant White) detergent solution (ZZLB), and the detector is a customized photoelectric detector (CD detector).
In addition, due to the use of the CUR-NMP single organic solvent composition system, the solvent addition amount in Table 6 can be considered equivalent to the addition amount of the probe solution. The cmc value is determined using the fitted line intersection method, i.e., according to the determination results of a fluorescence spectrophotometer, an appropriate wavelength is selected within the corresponding fluorescence emission peak range, and a fluorescence response value-concentration curve is plotted with detergent concentrations on the x-axis and fluorescence intensity on the y-axis. The plateau region and the rising region of the curve are fitted by linear regression, respectively, and the intersection point of two fitted lines is obtained. The surfactant concentration on the x-axis corresponding to the intersection point is the cmc concentration (measured value).
The fluorescence photoelectric detector used in the present invention includes any of the following: • 1) including excitation filter (430 nm), dichroic mirror, and emission filter (495 nm), light source: peak wavelength of 430 nm, waveband of 420 to 440 nm, working current: 0.02 A, working voltage: 5V, the acceptable wavelength range of detector of at least 480-510 nm; • 2) including excitation filter (550 nm), dichroic mirror, and emission filter (638 nm), light source: peak wavelength of 550 nm, waveband of 540 to 560 nm, working current: 0.02 A, working voltage: 5V, the acceptable wavelength range of detector of at least 620-650 nm.
Referring to Examples 1 and 3, Supreme Biotechnology (Brilliant White) detergent solution was prepared. […] Determination was carried out using a CD detector in the above two cases.

[5] = cmc of detergent solution by fluorescence probe method, fluorescence spectrophotometer (Example 1); type: physicochemical
[6] = HSP distance between solvent and pyrene
[7] = HSP distance between solvent and rhodamine B
[8] = total δ of solvent minus total δ of pyrene
[9] = total δ of solvent minus total δ of rhodamine B
[10] = HSP distance between solvent and curcumin (CUR)
[11] = total δ of solvent minus total δ of curcumin (CUR)
[12] = aqueous solution of Supreme Biotechnology (Bright White) laundry detergent, label = solvent for probe
[13] = aqueous solution of Supreme Biotechnology (Bright White) laundry detergent, label = solvent for probe (auxiliary agent)

Row | Compound | Flash point [1] [°C] | Viscosity [1] | Dispersion δD [2] | Hydrogen bonding δH [2] | Polarity δH [2] | Total δ [2] | Volatility/Boiling point [1] [°C] | Ra [3, 10] | δ difference [3, 11] | other results
1 | CC(O)CCO (centres unmarked) [1,3-butanediol] | 121 | 130.3 mPa · s | – | – | – | – | – | – | – | Viscosity ([1]; listed as 1,3-butanediol (1,3-BDO)): 130 mPa · s
2 | CC(C)=O [Acetone] | −17.8 | 0.316 mPa · s | 15.5 (MPa)^1/2 | 7 (MPa)^1/2 | 10.4 (MPa)^1/2 | 19.935 (MPa)^1/2 | 56 | – | – | Ra [3, 6]: 16.806 (MPa)^1/2; Ra [3, 7]: 13.727 (MPa)^1/2; δ difference [3, 8]: −2.974 (MPa)^1/2; δ difference [3, 9]: −10.518 (MPa)^1/2
3 | CC#N [Acetonitrile] | 5.6 | 0.375 mPa · s | 15.3 (MPa)^1/2 | 6.1 (MPa)^1/2 | 18 (MPa)^1/2 | 24.399 (MPa)^1/2 | 82 | – | – | –
4 | CCCCOC(=O)c1ccccc1C(=O)OCCCC [Dibutyl phthalate] | 171 | 9.72 mPa · s | 17.8 (MPa)^1/2 | 4.1 (MPa)^1/2 | 8.6 (MPa)^1/2 | 20.189 (MPa)^1/2 | 339 | – | – | –
5 | CCOCCOCCO [Diethylene glycol monoethyl ether (DGME), Diethylene glycol monoethyl ether] | 94 | 3.85 mPa · s | 16.1 (MPa)^1/2 | 12.2 (MPa)^1/2 | 9.2 (MPa)^1/2 | 22.197 (MPa)^1/2 | 202 | 6.386 (MPa)^1/2 | −0.382 (MPa)^1/2 | cmc value, CUR, By Customized fluorescence photoelectric detector [4]: 0.114 g/L; cmc value, NR, By Customized fluorescence photoelectric detector [4]: 0.074 g/L; Ra [3, 6]: 16.995 (MPa)^1/2; Ra [3, 7]: 10.489 (MPa)^1/2; δ difference [3, 8]: −0.712 (MPa)^1/2; δ difference [3, 9]: −8.256 (MPa)^1/2; cmc value, NR, By Fluorescence spectrophotometer [5, 12]: 0.089 g/L; cmc value, CUR, By Fluorescence spectrophotometer [5, 13]: 0.086 g/L
6 | C[S+](C)[O-] [Dimethyl sulfoxide] | – | – | 18.4 (MPa)^1/2 | 10.2 (MPa)^1/2 | 16.4 (MPa)^1/2 | 26.675 (MPa)^1/2 | – | 13.383 (MPa)^1/2 | 4.096 (MPa)^1/2 | –
7 | CN(C)C=O [Dimethylformamide (DMF), Dimethylformamide] | 58 | 0.802 mPa · s | 17.4 (MPa)^1/2 | 11.3 (MPa)^1/2 | 13.7 (MPa)^1/2 | 24.862 (MPa)^1/2 | – | – | – | –
8 | CCOCC [Ether] | – | – | 14.5 (MPa)^1/2 | 4.6 (MPa)^1/2 | 2.9 (MPa)^1/2 | 15.486 (MPa)^1/2 | – | – | – | Ra [3, 6]: 16.064 (MPa)^1/2; Ra [3, 7]: 20.633 (MPa)^1/2; δ difference [3, 8]: −7.423 (MPa)^1/2; δ difference [3, 9]: −14.967 (MPa)^1/2
9 | CCOC(=O)CO [Ethyl glycolate] | 62 | – | – | – | – | – | 158 | 14.383 (MPa)^1/2 | 2.225 (MPa)^1/2 | –
10 | OCCOc1ccccc1 [Ethylene glycol monophenyl ether] | 121 | 30.5 mPa · s | 17.8 (MPa)^1/2 | 12.2 (MPa)^1/2 | 5.9 (MPa)^1/2 | 22.372 (MPa)^1/2 | 245 | 2.858 (MPa)^1/2 | −0.207 (MPa)^1/2 | –
11 | OCCO [Ethylene glycol] | – | – | – | – | – | – | – | – | – | cmc value, CUR, By Customized fluorescence photoelectric detector [4]: 0.121 g/L; cmc value, CUR, By Fluorescence spectrophotometer [5]: 0.102 g/L; cmc value, NR, By Fluorescence spectrophotometer [5]: 0.091 g/L
12 | OCC(O)CO [Glycerol] | – | – | 17.4 (MPa)^1/2 | 29.3 (MPa)^1/2 | 12.1 (MPa)^1/2 | 36.162 (MPa)^1/2 | – | 17.614 (MPa)^1/2 | 13.583 (MPa)^1/2 | –
13 | CCN1CCCC1=O [N-ethylpyrrolidone (NEP), N-ethylpyrrolidone] | 76.1 | – | 18 (MPa)^1/2 | 7 (MPa)^1/2 | 12 (MPa)^1/2 | 22.738 (MPa)^1/2 | 218 | – | 0.159 (MPa)^1/2 | –
14 | Cc1ccccc1 [Toluene] | 4.4 | 0.587 mPa · s | 18 (MPa)^1/2 | 2 (MPa)^1/2 | 1.4 (MPa)^1/2 | – | – | – | – | –
15 | Polyethylene glycol 200 [Polyethylene glycol 200 (PEG200)] | >100 | (22-23) mPa · s | – | – | – | – | – | – | – | cmc value, CUR, By Customized fluorescence photoelectric detector [4]: 0.113 g/L; cmc value, NR, By Customized fluorescence photoelectric detector [4]: 0.069 g/L; cmc value, NR, By Fluorescence spectrophotometer [5, 12]: 0.062 g/L; cmc value, CUR, By Fluorescence spectrophotometer [5, 13]: 0.094 g/L
16 | Water | – | 1.002 mPa · s | 15.5 (MPa)^1/2 | 42.3 (MPa)^1/2 | 16 (MPa)^1/2 | 47.807 (MPa)^1/2 | – | – | – | –

From patent US20260085262A1, “ACQ FLUORESCENCE PROBE COMPOSITION, CMC DETERMINATION METHOD, STAIN CLEANING CONCENTRATION DETERMINATION METHOD, DETERGENT DISPENSING CONTROL METHOD, AND DETERGENT DISPENSING CONTROL SYSTEM” (GUANGZHOU BLUEMOON INDUSTRIAL CO., LTD., priority 2024, published 2026)
